Tests used:
FaDu = test: Cytotoxicity against human FADU cells assessed as reduction in cell viability incubated for 96 hrs by SRB assay; type: functional, cell-based
NIH3T3 = test: Cytotoxicity against mouse NIH/3T3 cells assessed as reduction in cell viability incubated for 96 hrs by SRB assay; type: cell-based; conditions: NIH3T3, 96 h
A2780 = test: Cytotoxicity against human A2780 cells assessed as reduction in cell viability incubated for 96 hrs by SRB assay; type: functional, cell-based; conditions: A2780, 96 h
A-375 = test: Cytotoxicity against human A375 cells assessed as reduction in cell viability incubated for 96 hrs by SRB assay; type: functional, cell-based; conditions: A-375, 96 h
HT-29 = test: Cytotoxicity against human HT-29 cells assessed as reduction in cell viability incubated for 96 hrs by SRB assay; type: functional, cell-based; conditions: HT-29, 96 h
MCF7 = test: Cytotoxicity against human MCF7 cells assessed as reduction in cell viability incubated for 96 hrs by SRB assay; type: functional, cell-based; conditions: MCF7, 96 h

Row | SMILES | EC50 (FaDu) | EC50 (NIH3T3) | EC50 (A2780) | EC50 (A-375) | EC50 (HT-29) | EC50 (MCF7)
1 | CC1(C)[C@@H](O)CC[C@]2(C)[C@H]3C(=O)C=C4[C@@H]5C[C@@](C)(C(=O)O)CC[C@]5(C)CC[C@@]4(C)[C@]3(C)CC[C@@H]12 [ENOXOLONE] | > 30 µM |  |  |  |  | 
2 | CC(=O)O[C@H]1CC[C@]2(C)[C@H]3CC=C4[C@@H]5[C@@H](C)[C@H](C)CC[C@]5(C(=O)NCCNC(=O)CCC5=[N+]6C(=Cc7c(C)cc(C)n7[B-]6(F)F)C=C5)CC[C@@]4(C)[C@]3(C)CC[C@H]2C1(C)C | 5.7 µM | 3 µM | 8.7 µM | 4 µM | > 30 µM | 2.2 µM
3 | C=C(C)[C@@H]1CC[C@]2(COC(C)=O)CC[C@]3(C)[C@H](CC[C@@H]4[C@@]5(C)CC[C@H](OC(C)=O)C(C)(C)[C@@H]5CC[C@]43C)[C@@H]12 [BETULIN DIACETATE] | > 30 µM | > 30 µM | > 30 µM | > 30 µM | > 30 µM | > 30 µM
4 | C=C(C)[C@@H]1CC[C@]2(COC(C)=O)CC[C@]3(C)[C@H](CC[C@@H]4[C@@]5(C)CC[C@H](OC(=O)CCC6=[N+]7C(=Cc8c(C)cc(C)n8[B-]7(F)F)C=C6)C(C)(C)[C@@H]5CC[C@]43C)[C@@H]12 | 4.7 µM | 9.2 µM | 2.7 µM |  | 3.1 µM | 4.3 µM
5 | CC(=O)O[C@H]1CC[C@]2(C)[C@H]3CC=C4[C@@H]5CC(C)(C)CC[C@]5(C(=O)NCCNC(=O)CCC5=[N+]6C(=Cc7c(C)cc(C)n7[B-]6(F)F)C=C5)CC[C@@]4(C)[C@]3(C)CC[C@H]2C1(C)C | 7 µM | 3.4 µM | 10.3 µM | 4.3 µM | > 30 µM | 2.3 µM
6 | Cc1cc(C)n2c1C=C1C=CC(CCC(=O)O)=[N+]1[B-]2(F)F | > 30 µM | > 30 µM | > 30 µM | > 30 µM | > 30 µM | > 30 µM
7 | CC(=O)O[C@H]1CC[C@]2(C)[C@H]3CC=C4[C@@H]5CC(C)(C)CC[C@]5(C(=O)N5CCN(C(=O)CCC6=[N+]7C(=Cc8c(C)cc(C)n8[B-]7(F)F)C=C6)CC5)CC[C@@]4(C)[C@]3(C)CC[C@H]2C1(C)C | > 30 µM | > 30 µM | > 30 µM | 29.8 µM | > 30 µM | > 30 µM
8 | C=C(C)[C@@H]1CC[C@]2(COC(=O)CCC3=[N+]4C(=Cc5c(C)cc(C)n5[B-]4(F)F)C=C3)CC[C@]3(C)[C@H](CC[C@@H]4[C@@]5(C)CC[C@H](OC(C)=O)C(C)(C)[C@@H]5CC[C@]43C)[C@@H]12 | > 30 µM | > 30 µM | > 30 µM | > 30 µM | > 30 µM | 28.9 µM
9 | CC(=O)O[C@H]1CC[C@]2(C)[C@H]3C(=O)C=C4[C@@H]5C[C@@](C)(C(=O)N6CCNCC6)CC[C@]5(C)CC[C@@]4(C)[C@]3(C)CC[C@H]2C1(C)C | 8.7 µM | 8.7 µM | 8.2 µM |  | 4.4 µM | 8.4 µM
10 | CC(=O)O[C@H]1CC[C@]2(C)[C@H]3CC=C4[C@@H]5CC(C)(C)CC[C@]5(C(=O)NCCN)CC[C@@]4(C)[C@]3(C)CC[C@H]2C1(C)C | 4.3 µM | 2.1 µM | 3.1 µM |  | 2 µM | 1.7 µM
11 | CC(=O)O[C@H]1CC[C@]2(C)[C@H]3CC=C4[C@@H]5[C@@H](C)[C@H](C)CC[C@]5(C(=O)NCCN)CC[C@@]4(C)[C@]3(C)CC[C@H]2C1(C)C | 3.7 µM | 2.6 µM | 2.3 µM |  | 1.8 µM | 2 µM
12 | CC(=O)O[C@H]1CC[C@]2(C)[C@H]3CC=C4[C@@H]5[C@@H](C)[C@H](C)CC[C@]5(C(=O)N5CCNCC5)CC[C@@]4(C)[C@]3(C)CC[C@H]2C1(C)C | 1.9 µM |  |  |  |  | 
13 | CC1(C)CC[C@]2(C(=O)O)CC[C@]3(C)C(=CC[C@@H]4[C@@]5(C)CC[C@H](O)C(C)(C)[C@@H]5CC[C@]43C)[C@@H]2C1 [OLEANOLIC_ACID] | > 30 µM |  | > 30 µM |  |  | 
14 | CC(=O)O[C@H]1CC[C@]2(C)[C@H]3C(=O)C=C4[C@@H]5C[C@@](C)(C(=O)N6CCN(C(=O)CCC7=[N+]8C(=Cc9c(C)cc(C)n9[B-]8(F)F)C=C7)CC6)CC[C@]5(C)CC[C@@]4(C)[C@]3(C)CC[C@H]2C1(C)C | 8.6 µM | 9.1 µM | 7.8 µM | 8.3 µM | > 30 µM | 7.9 µM
15 | CC(=O)O[C@H]1CC[C@]2(C)[C@H]3CC=C4[C@@H]5CC(C)(C)CC[C@]5(C(=O)N5CCNCC5)CC[C@@]4(C)[C@]3(C)CC[C@H]2C1(C)C | 1.6 µM |  |  |  |  | 
16 | C=C(C)[C@@H]1CC[C@]2(C(=O)NCCN)CC[C@]3(C)[C@H](CC[C@@H]4[C@@]5(C)CC[C@H](OC(C)=O)C(C)(C)[C@@H]5CC[C@]43C)[C@@H]12 | 1.2 µM | 1.4 µM | 1.4 µM |  | 1 µM | 1.3 µM
17 | C=C(C)[C@@H]1CC[C@]2(C(=O)N3CCNCC3)CC[C@]3(C)[C@H](CC[C@@H]4[C@@]5(C)CC[C@H](OC(C)=O)C(C)(C)[C@@H]5CC[C@]43C)[C@@H]12 | 1.3 µM |  |  |  |  | 
18 | C=C(C)[C@@H]1CC[C@]2(C(=O)N3CCN(C(=O)CCC4=[N+]5C(=Cc6c(C)cc(C)n6[B-]5(F)F)C=C4)CC3)CC[C@]3(C)[C@H](CC[C@@H]4[C@@]5(C)CC[C@H](OC(C)=O)C(C)(C)[C@@H]5CC[C@]43C)[C@@H]12 | > 30 µM | > 30 µM | > 30 µM | > 30 µM | > 30 µM | > 30 µM
19 | CC(=O)O[C@H]1CC[C@]2(C)[C@H]3C(=O)C=C4[C@@H]5C[C@@](C)(C(=O)NCCN)CC[C@]5(C)CC[C@@]4(C)[C@]3(C)CC[C@H]2C1(C)C | 5.7 µM | 4.3 µM | 2 µM |  | 4.3 µM | 3.2 µM
20 | C=C(C)[C@@H]1CC[C@]2(CO)CC[C@]3(C)[C@H](CC[C@@H]4[C@@]5(C)CC[C@H](O)C(C)(C)[C@@H]5CC[C@]43C)[C@@H]12 [BETULIN] | > 30 µM | > 30 µM | > 30 µM | > 30 µM | > 30 µM | > 30 µM
21 | C=C(C)[C@@H]1CC[C@]2(CO)CC[C@]3(C)[C@H](CC[C@@H]4[C@@]5(C)CC[C@H](OC(C)=O)C(C)(C)[C@@H]5CC[C@]43C)[C@@H]12 | > 30 µM | > 30 µM |  | > 30 µM | > 30 µM | 
22 | C[C@H]1[C@H](C)CC[C@]2(C(=O)O)CC[C@]3(C)C(=CC[C@@H]4[C@@]5(C)CC[C@H](O)C(C)(C)[C@@H]5CC[C@]43C)[C@H]12 [URSOLIC ACID] |  | 13.1 µM |  |  |  | 
23 | CC(=O)O[C@H]1CC[C@]2(C)[C@H]3CC=C4[C@@H]5[C@@H](C)[C@H](C)CC[C@]5(C(=O)N5CCN(C(=O)CCC6=[N+]7C(=Cc8c(C)cc(C)n8[B-]7(F)F)C=C6)CC5)CC[C@@]4(C)[C@]3(C)CC[C@H]2C1(C)C | > 30 µM | > 30 µM | > 30 µM | 21.6 µM | > 30 µM | 24.4 µM
24 | CC(=O)O[C@H]1CC[C@]2(C)[C@H]3C(=O)C=C4[C@@H]5C[C@@](C)(C(=O)NCCNC(=O)CCC6=[N+]7C(=Cc8c(C)cc(C)n8[B-]7(F)F)C=C6)CC[C@]5(C)CC[C@@]4(C)[C@]3(C)CC[C@H]2C1(C)C | > 30 µM | > 30 µM | 18.4 µM | 23.9 µM | 26.5 µM | 7.2 µM
25 | C=C(C)[C@@H]1CC[C@]2(C(=O)NCCNC(=O)CCC3=[N+]4C(=Cc5c(C)cc(C)n5[B-]4(F)F)C=C3)CC[C@]3(C)[C@H](CC[C@@H]4[C@@]5(C)CC[C@H](OC(C)=O)C(C)(C)[C@@H]5CC[C@]43C)[C@@H]12 | > 30 µM | > 30 µM | > 30 µM | > 30 µM | > 30 µM | 11.3 µM

Reference: ChEMBL document CHEMBL4373745, “Design, synthesis and cytotoxicity of BODIPY FL labelled triterpenoids” (Eur J Med Chem, 2020)
